The text below walks through data of patent publication US5041238A, “o,o'-Bridged oligophenylene laser dyes, dyestuff lasers and methods of lasing therewith” (Exciton Chemical Company, priority 1988, dated 1991).

Series [1] is described as follows: Fluorescence emission spectrum (Perkin-Elmer MPF-44A). Type of series: physicochemical. Particulars: for Fluorescence peak 1, intensity / Fluorescence peak 1, wavelength / Fluorescence peak 2, intensity / Fluorescence peak 2, wavelength / Fluorescence emission peak 1, intensity / Fluorescence emission peak 1, wavelength / Fluorescence emission peak 2, intensity / Fluorescence emission peak 2, wavelength: slits 2 nm; for Fluorescence emission peak 1, intensity / Fluorescence emission peak 1, wavelength / Fluorescence emission peak 2, intensity / Fluorescence emission peak 2, wavelength: excitation 265 nm. The text has this: (§1) The fluorescence emission spectrum for the dye 9,9-dipropylfluorene as illustrated in FIG. 1 was detected on a Perkin-Elmer MPF-44A, the slits were set at 2 nm and the excitation light was at 265 nm. The Fluorescence Quantum Efficiency (FQE) was about the same as that of fluorene - 55%; and the fluorescence emission peaks at 306 nm(intensity 86) and 316 nm(intensity 67) were also similar to those of fluorene [the fluorescence emission spectrum for fluorene as illustrated in FIG. 5 was also detected on a Perkin-Elmer MPF-44A, the slits were set at 2 nm and the excitation light was at 265 nm and the fluorescence emission peaks for fluorene are at 303 nm(intensity 93) and 311 nm(intensity 73)].
This dye had two fluorescence peaks of almost equal intensity at 360 nm(intensity 33) and 378 nm(intensity 28) as illustrated in FIG. 2. […] The fluorescence emission spectrum of the dye 9,9,9',9'-tetrapropyl-2,2'-bifluorene was detected on a Perkin-Elmer MPF-44A, the slits were set at 2 nm and the excitation light was at 331 nm.
(§2) This dye had fluorescence peaks at 324 nm(intensity 90) and 338 nm(intensity 76) and a reported fluorescence quantum yield of 100% in cyclohexane as illustrated in FIG. 3. […] The fluorescence emission spectrum for the dye 3-phenyldibenzofuran as illustrated in FIG. 3 was detected on a Perkin-Elmer MPF-44A, the slits were set at 2 nm and the excitation light was at 301 nm.
The dye, 3,3'-bi(dibenzofuran), was prepared in accordance with the process disclosed in H. O. Wirth, G. Waese and W. Kern: Synthese Und Eigenschaften Von: Oxydo-p-oligophenylenen. Makromol. Chem. 86: 139(1965) which is incorporated herein in its entirety by reference, and was purified by extraction from Brockmann Activity I alumina with chloroform in an Ace-Kauffman column to give a white solid, mp 249.5°-250.5° C. (lit.mp 252.5° C.). This dye had two fluorescence peaks of almost equal intensity at 353 nm(intensity 47) and 369 nm(intensity 30) in cyclohexane as illustrated in FIG. 4.

Series [2] can be described thus: Solubilities of o,o'-bridged oligophenylenes at 21° C. in laser solvents. Type of series: physicochemical. The following applies: comparison in laser solvents. On the procedure: SOLUBILITIES OF o,o'-BRIDGED OLIGOPHENYLENES AT 21° C.
For series [3] the following is noted: cyclohexane; cited from earlier work.
Series [4] in a line: Fluorescence quantum efficiency / quantum yield. Type of series: physicochemical.
From the text: as §1, §2

Series [5] in a line: Violet fluorescence in alcohols. Type of series: physicochemical. On the procedure: The dye, 9,9'-diethyl-2,2'-bicarbazole, was prepared from the above intermediate as follows. To a mixture of 1.10 g (4 mMol) of 2-bromo-9-ethylcarbazole and 0.096 g of cut magnesium ribbon in 4 ml of refluxing ether was added 50 microliters of 1,2-dibromoethane. Refluxing was continued for 18 hrs. The solution was cooled and 386 microliters (0.455 g) of cis-1,4-dichloro-2-butene was added. As the solution was returned to reflux, a precipate appeared. After three hours the mixture was filtered. The solid was recrystallized from 2-methoxyethanol with a hot filtration to give 0.124 g (12% of theory) of product, mp 239°-40° C.

For `CCCC1(CCC)c2ccccc2-c2ccc(-c3ccc4c(c3)C(CCC)(CCC)c3ccccc3-4)cc21` [9,9,9',9'-tetrapropyl-2,2'-bifluorene], in series [1] (excitation 331 nm), the “Fluorescence peak 1, intensity” value is 33; the “Fluorescence peak 1, wavelength” value was determined as 360 nm; the “Fluorescence peak 2, intensity” value amounted to 28; the “Fluorescence peak 2, wavelength” value is listed as 378 nm. Further, the “Solubility compared with another dye (words)” value in series [2] is listed as “more soluble than 2,2'-bifluorene in solvents”.
Take `c1ccc2c(c1)Cc1ccccc1-2` [fluorene, reference compound]: in series [1], the “Fluorescence emission peak 1, intensity” value was found to be 93; the “Fluorescence emission peak 1, wavelength” value is 303 nm; the “Fluorescence emission peak 2, intensity” value was determined as 73; the “Fluorescence emission peak 2, wavelength” value stood at 311 nm.
Turning to `CCCC1(CCC)c2ccccc2-c2ccccc21` [9,9-dipropylfluorene], in series [1], the “Fluorescence emission peak 1, intensity” value came out at 86; the “Fluorescence emission peak 1, wavelength” value amounted to 306 nm; the “Fluorescence emission peak 2, intensity” value turned out to be 67; the “Fluorescence emission peak 2, wavelength” value is listed as 316 nm.
`c1ccc(-c2ccc3c(c2)oc2ccccc23)cc1` [3-phenyldibenzofuran]: in series [1] (cyclohexane, excitation 301 nm), the “Fluorescence peak 1, intensity” value is recorded as 90; the “Fluorescence peak 1, wavelength” value is 324 nm; the “Fluorescence peak 2, intensity” value was 76; the “Fluorescence peak 2, wavelength” value stood at 338 nm. In addition, the “Solubility compared with another dye (words)” value in series [2] is reported as “much greater than that of p-terphenyl”. Further, in series [2] (listed as 3phenyldibenzofuran), the “Solubility compared with another dye (words)” value was “much more soluble in methanol, 50% ethanol, 95% ethanol and absolute”. Moreover, the “Fluorescence quantum yield (reported)” value in series [3] is listed as 100%. Besides, in series [4], the “FQE in methanol compared with cyclohexane” value is “the same in methanol as in cyclohexane”.
Turning to `CCn1c2ccccc2c2ccc(-c3ccc4c5ccccc5n(CC)c4c3)cc21` [9,9'-diethyl-2,2'-bicarbazole], the “Violet fluorescence in alcohols compared with compounds of Examples 2 and 4” value in series [5] is “brighter violet fluorescence in alcohols than the compounds of Examples 2 and 4”.
In the case of `c1ccc2c(c1)oc1cc(-c3ccc4c(c3)oc3ccccc34)ccc12` [3,3'-bi(dibenzofuran)], in series [1], the “Fluorescence emission spectrum compared with dye of Example 2” value was “almost superimposable on that of the dye discussed in Example 2”. Further, in series [1] (cyclohexane, excitation 323 nm), the “Fluorescence peak 1, intensity” value turned out to be 47; the “Fluorescence peak 1, wavelength” value stood at 353 nm; the “Fluorescence peak 2, intensity” value is listed as 30; the “Fluorescence peak 2, wavelength” value is given as 369 nm. For the same molecule, the “Solubility compared with another dye (words)” value in series [2] is reported as “greater than that of 2,2'-bifluorene”.
